Laboratory results as given in PMC9250534, “Synthesis and direct assay of large macrocycle diversities by combinatorial late-stage modification at picomole scale” (Nature Communications, 2022).
Where “and” joins values, the source holds several entries; their conditions need not be identical. Equal entries are not always repeated. Where two headings read alike, the source gives them in different places.

How the values were obtained:
thrombin [1] = molecular target: T1, thrombin (Homo sapiens, UniProt P00734); assay: Determination of Kis of purified thrombin inhibitors (IC50, Cheng-Prusoff); type: biochemical; conditions: for % thrombin activity: replicates 1-3
T1 construct: consists of two polypeptide chains of 36 (light chain) and 259 amino acid
Experimental: Purified thrombin inhibitors (10 mM in DMSO) were diluted to 80 μM in 125 μL of Tris buffer (100 mM Tris-Cl, 150 mM NaCl, 10 mM MgCl2, 1 mM CaCl2) containing 0.1% w/v BSA, 0.01% v/v Triton-X100 and […]. The macrocycles were diluted two-fold in Tris buffer containing 0.1% w/v BSA, 0.01% v/v Triton-X100 and 1% DMSO in buffer. The thrombin activity was measured in 96-well plates (Greiner, 655101) and the residual activity calculated as described above in the assay used to measure activities of HPLC-separated fractions of screening hits.
Supplementary Figure 7. Thrombin inhibitors M1 to M5. a, Chemical structures and analytical HPLC chromatograms obtained using a 0-100% MeCN/H2O gradient over 15 minutes. b, For all macrocycles, an 18 -point, two-fold serial dilution was performed in 50 µL volumes. Thrombin was added (50 µL, 2 nM final conc.), followed 10 minutes later by fluorogenic substrate Z -Gly-Gly-Arg-AMC (50 µL, 50 µM final conc.). The increase in fluorescence was measured over 30 minutes.
Residual thrombin activity was determined by dividing the slope of fluorescenc e intensity over time for each well by the slope of control wells without macrocycle. Mean values and SDs are indicated for three independent thrombin inhibition measurements.
(1 picture or pasted object on this page, not shown here)

thrombin [2] = molecular target: T1, thrombin; assay: Thrombin inhibition screen of crude macrocycle reactions (residual thrombin activity, fluorogenic substrate Z-Gly-Gly-Arg-AMC); type: biochemical; conditions: 10 µM macrocycle concentration, macrocycles containing acid 14, crude reaction
How it was run: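 Residual activity was measured as the AMC release rate after adding 50 μM Z-Gly-Gly-Arg-AMC. This followed a 10-min room-temperature preincubation of 2 nM thrombin with 10 μM single macrocycles in pH 7.4 Tris buffer (0.6% DMSO). Percent inhibition was taken against the mean slope of DMSO controls.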

[3] = thrombin, average of 3 replicates, read-out: IC50 (nM) Average
[4] = thrombin, replicate 1, Cheng-Prusoff, read-out: Ki (nM) Replicate 1
[5] = thrombin, replicate 1, read-out: IC50 (nM) Replicate 1
[6] = thrombin, replicate 2, Cheng-Prusoff, read-out: Ki (nM) Replicate 2
[7] = thrombin, replicate 2, read-out: IC50 (nM) Replicate 2
[8] = thrombin, replicate 3, Cheng-Prusoff, read-out: Ki (nM) Replicate 3
[9] = thrombin, replicate 3, read-out: IC50 (nM) Replicate 3

SMILES: NC(=O)c1ccc(Cl)s1 [5-chlorothiophene-2-carboxamide, reference compound]
- Ki (thrombin [1]; read-out: Ki thrombin): 380000 nM

SMILES: CC(C)[C@H]1NC(=O)CCSSCCNC(=O)[C@H](CNC(=O)c2ccc(Cl)s2)NC(=O)c2cccc(c2)CNC1=O [M1]
- % thrombin activity (thrombin [1]; Log [Macrocycle] M -8.8): 98.0% and 96.9% and 96.6%
- % thrombin activity (thrombin [1]; Log [Macrocycle] M -9.1): 99.2% and 98.3% and 98.9%
- % thrombin activity (thrombin [1]; Log [Macrocycle] M -9.4): 99.9% and 99.1% and 103.5%
- % thrombin activity (thrombin [1]; Log [Macrocycle] M -9.7): 100.7% and 100.1% and 99.6%
- % thrombin activity (thrombin [1]; Log[Macrocycle] M -4.6): -0.0543% and 1.1% and -0.4%
- % thrombin activity (thrombin [1]; Log[Macrocycle] M -4.9): 0.156% and 0.7% and 0.8%
- % thrombin activity (thrombin [1]; Log[Macrocycle] M -5.2): 0.8% (2×) and 1.8%
- % thrombin activity (thrombin [1]; Log[Macrocycle] M -5.5): 1.9% (2×) and 2.1%
- % thrombin activity (thrombin [1]; Log[Macrocycle] M -5.8): 3.9% and 4.1% and 4.6%
- % thrombin activity (thrombin [1]; Log[Macrocycle] M -6.1): 7.3% and 6.9% and 7.7%
- % thrombin activity (thrombin [1]; Log[Macrocycle] M -6.4): 13.7% and 13.0% and 13.6%
- % thrombin activity (thrombin [1]; Log[Macrocycle] M -6.7): 22.7% and 21.8% and 22.6%
- % thrombin activity (thrombin [1]; Log[Macrocycle] M -7.0): 35.5% and 35.6% and 37.1%
- % thrombin activity (thrombin [1]; Log[Macrocycle] M -7.3): 54.7% and 53.1% and 53.5%
- % thrombin activity (thrombin [1]; Log[Macrocycle] M -7.6): 68.7% and 65.3% and 67.8%
- % thrombin activity (thrombin [1]; Log[Macrocycle] M -7.9): 81.7% and 81.8% and 83.6%
- % thrombin activity (thrombin [1]; Log[Macrocycle] M -8.2): 91.6% and 89.3% and 88.1%
- % thrombin activity (thrombin [1]; Log[Macrocycle] M -8.5): 94.7% and 92.6% and 94.4%
- IC50 (thrombin [1]; [3]): 58 nM
- Ki (thrombin [1]; [4]): 45 nM
- IC50 (thrombin [1]; [5]): 59 nM
- Ki (thrombin [1]; [6]): 43 nM
- IC50 (thrombin [1]; [7]): 56 nM
- Ki (thrombin [1]; [8]): 45 nM
- IC50 (thrombin [1]; [9]): 58 nM

SMILES: O=C1CCSSCCNC(=O)C(CNC(=O)c2ccc(Cl)s2)NC(=O)c2cccc(c2)CNC(=O)C(Cc2ccccc2)N1 (stereo not shown) [M2]
- % thrombin activity, Original screen (thrombin [2]; original screen): 6.9%
- % thrombin activity, Repeat screen (thrombin [2]; replicate reaction and screen): 6.5%
- % thrombin activity (thrombin [1]; Log [Macrocycle] M -8.8): 99.5% and 97.4% and 98.4%
- % thrombin activity (thrombin [1]; Log [Macrocycle] M -9.1): 100.1% (2×) and 99.4%
- % thrombin activity (thrombin [1]; Log [Macrocycle] M -9.4): 100.7% and 100.1% and 99.7%
- % thrombin activity (thrombin [1]; Log [Macrocycle] M -9.7): 100.6% and 99.6% and 99.8%
- % thrombin activity (thrombin [1]; Log[Macrocycle] M -4.6): 3.5% and 3.8% and 4.4%
- % thrombin activity (thrombin [1]; Log[Macrocycle] M -4.9): 4.9% (2×) and 5.4%
- % thrombin activity (thrombin [1]; Log[Macrocycle] M -5.2): 6.7% and 6.5% and 7.1%
- % thrombin activity (thrombin [1]; Log[Macrocycle] M -5.5): 9.9% and 8.4% and 9.6%
- % thrombin activity (thrombin [1]; Log[Macrocycle] M -5.8): 16.3% and 13.3% and 13.6%
- % thrombin activity (thrombin [1]; Log[Macrocycle] M -6.1): 26.3% and 21.4% and 21.2%
- % thrombin activity (thrombin [1]; Log[Macrocycle] M -6.4): 42.5% and 32.8% and 34.8%
- % thrombin activity (thrombin [1]; Log[Macrocycle] M -6.7): 58.0% and 47.2% and 49.8%
- % thrombin activity (thrombin [1]; Log[Macrocycle] M -7.0): 71.8% and 64.0% and 65.5%
- % thrombin activity (thrombin [1]; Log[Macrocycle] M -7.3): 83.6% and 77.5% and 79.8%
- % thrombin activity (thrombin [1]; Log[Macrocycle] M -7.6): 92.7% and 85.4% and 86.8%
- % thrombin activity (thrombin [1]; Log[Macrocycle] M -7.9): 95.0% and 92.0% and 93.5%
- % thrombin activity (thrombin [1]; Log[Macrocycle] M -8.2): 99.2% and 94.0% and 94.1%
- % thrombin activity (thrombin [1]; Log[Macrocycle] M -8.5): 98.9% and 96.9% and 97.6%
- IC50 (thrombin [1]; [3]): 214 nM
- Ki (thrombin [1]; [4]): 210 nM
- IC50 (thrombin [1]; [5]): 270 nM
- Ki (thrombin [1]; [6]): 138 nM
- IC50 (thrombin [1]; [7]): 179 nM
- Ki (thrombin [1]; [8]): 149 nM
- IC50 (thrombin [1]; [9]): 193 nM

SMILES: CC(C)[C@@H]1NC(=O)CCSSCCNC(=O)[C@H](CNC(=O)c2ccc(Cl)s2)NC(=O)c2cccc(c2)CNC1=O [M3]
- % thrombin activity (thrombin [1]; Log [Macrocycle] M -8.8): 98.3% and 97.3% and 97.1%
- % thrombin activity (thrombin [1]; Log [Macrocycle] M -9.1): 98.8% and 98.0% and 98.2%
- % thrombin activity (thrombin [1]; Log [Macrocycle] M -9.4): 99.9% and 97.2% and 99.1%
- % thrombin activity (thrombin [1]; Log [Macrocycle] M -9.7): 93.6% and 99.4% (2×)
- % thrombin activity (thrombin [1]; Log[Macrocycle] M -4.6): -0.0344% and 0.5% and 0.739%
- % thrombin activity (thrombin [1]; Log[Macrocycle] M -4.9): 0.656% and 1.5% and 1.0%
- % thrombin activity (thrombin [1]; Log[Macrocycle] M -5.2): 2.2% and 5.0% and 2.4%
- % thrombin activity (thrombin [1]; Log[Macrocycle] M -5.5): 4.8% and 4.9% and 5.3%
- % thrombin activity (thrombin [1]; Log[Macrocycle] M -5.8): 9.4% and 9.7% (2×)
- % thrombin activity (thrombin [1]; Log[Macrocycle] M -6.1): 17.5% and 15.4% and 16.3%
- % thrombin activity (thrombin [1]; Log[Macrocycle] M -6.4): 29.4% and 28.1% and 27.8%
- % thrombin activity (thrombin [1]; Log[Macrocycle] M -6.7): 45.2% and 42.3% and 41.8%
- % thrombin activity (thrombin [1]; Log[Macrocycle] M -7.0): 60.5% and 58.8% and 57.9%
- % thrombin activity (thrombin [1]; Log[Macrocycle] M -7.3): 75.1% and 75.3% and 74.4%
- % thrombin activity (thrombin [1]; Log[Macrocycle] M -7.6): 85.8% and 81.9% and 83.6%
- % thrombin activity (thrombin [1]; Log[Macrocycle] M -7.9): 92.4% and 87.2% and 91.4%
- % thrombin activity (thrombin [1]; Log[Macrocycle] M -8.2): 97.7% and 93.3% and 94.6%
- % thrombin activity (thrombin [1]; Log[Macrocycle] M -8.5): 97.5% and 94.4% and 96.1%
- IC50 (thrombin [1]; [3]): 160 nM
- Ki (thrombin [1]; [4]): 134 nM
- IC50 (thrombin [1]; [5]): 170 nM
- Ki (thrombin [1]; [6]): 121 nM
- IC50 (thrombin [1]; [7]): 160 nM
- Ki (thrombin [1]; [8]): 119 nM
- IC50 (thrombin [1]; [9]): 150 nM

SMILES: CC(C)C1NC(=O)CCSCSCCNC(=O)C(CNC(=O)c2ccc(Cl)s2)NC(=O)c2cccc(c2)CNC1=O (stereo not shown) [M4]
- % thrombin activity (thrombin [1]; Log [Macrocycle] M -4.5): 0.233% and 0.231% and 2.7%
- % thrombin activity (thrombin [1]; Log [Macrocycle] M -4.8): 1.1% and 1.5% and 2.1%
- % thrombin activity (thrombin [1]; Log [Macrocycle] M -5.1): 2.6% and 3.2% and -2.3%
- % thrombin activity (thrombin [1]; Log [Macrocycle] M -5.4): 3.6% and 5.7% and 3.8%
- % thrombin activity (thrombin [1]; Log [Macrocycle] M -5.7): 8.1% and 9.4% and 6.2%
- % thrombin activity (thrombin [1]; Log [Macrocycle] M -6.0): 12.9% and 16.1% and 11.7%
- % thrombin activity (thrombin [1]; Log [Macrocycle] M -6.3): 22.1% and 27.3% and 19.3%
- % thrombin activity (thrombin [1]; Log [Macrocycle] M -6.6): 34.1% and 41.1% and 30.9%
- % thrombin activity (thrombin [1]; Log [Macrocycle] M -6.9): 55.7% and 58.5% and 45.5%
- % thrombin activity (thrombin [1]; Log [Macrocycle] M -7.2): 67.0% and 71.8% and 59.8%
- % thrombin activity (thrombin [1]; Log [Macrocycle] M -7.5): 78.0% and 82.2% and 70.6%
- % thrombin activity (thrombin [1]; Log [Macrocycle] M -7.8): 96.6% and 99.4% and 81.6%
- % thrombin activity (thrombin [1]; Log [Macrocycle] M -8.1): 97.9% and 103.9% and 87.1%
- % thrombin activity (thrombin [1]; Log [Macrocycle] M -8.4): 104.8% and 107.0% and 92.8%
- % thrombin activity (thrombin [1]; Log [Macrocycle] M -8.7): 103.7% and 107.0% and 93.5%
- % thrombin activity (thrombin [1]; Log [Macrocycle] M -9.0): 106.1% and 107.4% and 94.0%
- % thrombin activity (thrombin [1]; Log [Macrocycle] M -9.3): 106.8% and 100.7% and 99.2%
- % thrombin activity (thrombin [1]; Log [Macrocycle] M -9.6): 107.9% and 105.2% and 99.6%
- IC50 (thrombin [1]; [3]): 108 nM
- IC50 (thrombin [1]; [5]): 119 nM
- Ki (thrombin [1]; thrombin, replicate 1, read-out: Ki (nM) Replicate 1): 92 nM
- IC50 (thrombin [1]; [7]): 106 nM
- Ki (thrombin [1]; thrombin, replicate 2, read-out: Ki (nM) Replicate 2): 82 nM
- IC50 (thrombin [1]; [9]): 99 nM
- Ki (thrombin [1]; thrombin, replicate 3, read-out: Ki (nM) Replicate 3): 76 nM
